Experimental data taken from paper PMC9865890, “N-Derivatives of (Z)-Methyl 3-(4-Oxo-2-thioxothiazolidin-5-ylidene)methyl)-1H-indole-2-carboxylates as Antimicrobial Agents—In Silico and In Vitro Evaluation” (Pharmaceuticals, 2023).
In brackets after ≈: the same amount, converted by molar mass. Read-outs that look alike come from different tables or passages of the source.

Legend:
[1] = system: Bacillus cereus (clinical isolate); test: Antibacterial microdilution (MIC/MBC); type: cell-based; details: Bacillus cereus, B.c. (B. cereus); for MIC: read-out: MIC
Description: (§1) The synthesized compounds (Table 1) were evaluated for their antibacterial activity against a panel of eight species using a microdilution method with ampicillin and streptomycin as reference drugs. […] The order of activity can be presented as: 8 > 11 > 2 > 1 > 12 > 3 > 17 > 7 > 5 > 13 > 14 > 16 > 9 > 4 = 6 > 15 > 10. […] Cloacae. […] The most sensitive bacteria appeared to be En. cloacae, while E. coli was the most resistant one, followed by M. flavus.
(§2) The following Gram-negative bacteria: Escherichia coli (ATCC 35210), Enterobacter cloacae (clinical isolate), Salmonella typhimurium (ATCC 13311), as well as Gram-positive bacteria: Listeria monocytogenes (NCTC 7973), Bacillus cereus (clinical isolate), and Staphylococcus aureus (ATCC 6538) were used. The organisms were obtained from the Mycological Laboratory, Department of Plant Physiology, Institute for Biological Research “Siniša Stankovic”, Belgrade, Serbia. The minimum inhibitory (MIC) and minimum bactericidal (MBC) concentrations were determined by the modified microdilution method, as previously reported.

[2] = system: Staphylococcus aureus (ATCC 6538); test: Antibacterial microdilution (MIC/MBC); type: cell-based; details: S.a. (S. aureus)
Description: as §1, §2

[3] = system: Escherichia coli (ATCC 35210); test: Antibacterial microdilution (MIC/MBC); type: cell-based; details: Escherichia coli, ATCC35210, E. coli; for MIC: read-out: MIC
Description: as §1, §2

[4] = system: Enterobacter cloacae (clinical isolate); test: Antibacterial microdilution (MIC/MBC); type: cell-based; details: Enterobacter cloacae, En.cl (En. cloacae); for MIC: read-out: MIC
Description: as §1, §2

[5] = system: Listeria monocytogenes (NCTC 7973); test: Antibacterial microdilution (MIC/MBC); type: cell-based; details: Listeria monocytogenes, NCTC7973, L.m. (L. monocytogenes); for MIC: read-out: MIC
Description: as §1, §2

[6] = system: Salmonella typhimurium (ATCC 13311); test: Antibacterial microdilution (MIC/MBC); type: cell-based; details: Salmonella enterica, S.t. (S. typhimurium); for MIC: read-out: MIC
Description: as §1, §2

M. flavus = test: Antibacterial microdilution (MIC/MBC); type: cell-based; details: Micrococcus flavus; M.f. (M. flavus)
Description: as §1, §2

P. aeruginosa = test: Antibacterial microdilution (MIC/MBC); type: cell-based; details: Pseudomonas aeruginosa, P.a. (P. aeruginosa); for MIC: read-out: MIC
Description: as §1, §2

[7] = system: Penicillium verrucosum var. cyclopium (food isolate); test: Antifungal bioassay (MIC/MFC); type: cell-based
Description: For the antifungal bioassays, six fungi were used: Aspergillus niger (ATCC 6275), Aspergillus fumigatus (ATCC 1022), Aspergillus versicolor (ATCC 11730), Penicillium funiculosum (ATCC 36839), Trichoderma viride (IAM 5061), and Penicillium verrucosum var. cyclopium (food isolate). The organisms were obtained from the Mycological Laboratory, Department of Plant Physiology, Institute for Biological Research “Siniša Stankovic”, Belgrade, Serbia. All experiments were performed in duplicate.

P. ochrochloron = test: Antifungal bioassay (MIC/MFC); type: cell-based; details: for MFC: P.o. (P. ochrochloron); for MIC: P.o. (P. ochrochloron; text: P. ochramensis)
Description: (§3) For the antifungal bioassays, six fungi were used: […] The organisms were obtained from the Mycological Laboratory, Department of Plant Physiology, Institute for Biological Research “Siniša Stankovic”, Belgrade, Serbia. All experiments were performed in duplicate.

[8] = system: Aspergillus niger (ATCC 6275); test: Antifungal bioassay (MIC/MFC); type: cell-based; details: ATCC6275, A.n. (A. niger)
Description: as §3

[9] = system: Trichoderma viride (IAM 5061); test: Antifungal bioassay (MIC/MFC); type: cell-based; details: T.v. (T. viride)
Description: as §3

[10] = system: Penicillium funiculosum (ATCC 36839); test: Antifungal bioassay (MIC/MFC); type: cell-based; details: Talaromyces funiculosus, ATCC36839; P.f. (P. funiculosum)
Description: as §3

[11] = system: Aspergillus fumigatus (ATCC 1022); test: Antifungal bioassay (MIC/MFC); type: cell-based; details: ATCC1022, A.f. (A. fumigatus)
Description: as §3

A. ochraceus = test: Antifungal bioassay (MIC/MFC); type: cell-based; details: Aspergillus ochraceus, A.o. (A. ochraceus); for MIC: read-out: MIC
Description: as §3

[12] = system: Aspergillus versicolor (ATCC 11730); test: Antifungal bioassay (MIC/MFC); type: cell-based; details: ATCC11730, A.v. (A. versicolor)
Description: as §3

[13] = Staphylococcus aureus, ATCC6538
[14] = Staphylococcus aureus, ATCC6538, read-out: MIC
[15] = Penicillium ochrochloron, read-out: MIC
[16] = Trichoderma viride, IAM5061, read-out: MIC

Row | Structure (SMILES) | MBC [1] [µg/mL] | MIC [1] [µg/mL] | MBC [2, 13] [µg/mL] | MIC [2, 14] [µg/mL] | MBC [3] [µg/mL] | MIC [3] [µg/mL] | MBC [4] [µg/mL] | MIC [4] [µg/mL] | MBC [5] [µg/mL] | MIC [5] [µg/mL] | MBC [6] [µg/mL] | MIC [6] [µg/mL] | MBC (M. flavus) [µg/mL] | MIC (M. flavus) [µg/mL] | MBC (P. aeruginosa) [µg/mL] | MIC (P. aeruginosa) [µg/mL] | MFC [7] [µg/mL] | MIC [7] [µg/mL] | melting point [°C] | MFC (P. ochrochloron; Penicillium ochrochloron) [µg/mL] | also measured
1 | COC(=O)c1[nH]c2ccccc2c1/C=C1\SC(=S)N(CCCN2CCOCC2)C1=O [Compound 5, (Z)-methyl 3-((3-(3-morpholinopropyl)-4-oxo-2-thioxothiazolidin-5-ylidene)methyl)-1H-indole-2-carboxylate] | 60 ± 6 (≈ 135 µM) | 30 ± 10 (≈ 67.3 µM) | 30 ± 10 (≈ 67.3 µM) | 15 (≈ 33.7 µM) | 60 ± 6 (≈ 135 µM) | 30 ± 10 (≈ 67.3 µM) | 30 ± 10 (≈ 67.3 µM) | 15 ± 9 (≈ 33.7 µM) | 60 ± 6 (≈ 135 µM) | 30 ± 10 (≈ 67.3 µM) | 30 ± 10 (≈ 67.3 µM) | 22 ± 5 (≈ 49.4 µM) | 60 ± 6 (≈ 135 µM) | 45 ± 3 (≈ 101 µM) | 60 ± 6 (≈ 135 µM) | 30 ± 10 (≈ 67.3 µM) | 30 ± 10 (≈ 67.3 µM) | 15 ± 3 (≈ 33.7 µM) | 213 to 214 | 15 ± 3 (≈ 33.7 µM) | MIC [2]: 15 ± 9 µg/mL (≈ 33.7 µM); MIC (P. ochrochloron; [15]): 110 ± 10 µg/mL (≈ 247 µM); MFC [8]: 30 ± 10 µg/mL (≈ 67.3 µM); MIC [8]: 15 ± 3 µg/mL (≈ 33.7 µM); MIC [9]: 4 ± 1 µg/mL (≈ 8.98 µM); MFC ([9]; Trichoderma viride, IAM5061): 8 ± 0.6 µg/mL (≈ 18 µM); MIC [9, 16]: 4 µg/mL (≈ 8.98 µM); MFC [10]: 30 ± 10 µg/mL (≈ 67.3 µM); MIC [10]: 15 ± 3 µg/mL (≈ 33.7 µM); MFC [11]: 120 ± 40 µg/mL (≈ 269 µM); MIC [11]: 60 ± 6 µg/mL (≈ 135 µM); MFC (A. ochraceus): 15 ± 3 µg/mL (≈ 33.7 µM); MIC (A. ochraceus): 8 ± 0.6 µg/mL (≈ 18 µM); MFC [12]: 15 ± 3 µg/mL (≈ 33.7 µM); MIC [12]: 8 ± 0.6 µg/mL (≈ 18 µM)
2 | COC(=O)c1[nH]c2ccc(F)cc2c1/C=C1\SC(=S)N(N2CCOCC2)C1=O [Compound 16, (Z)-methyl 5-fluoro-3-((3-morpholino-4-oxo-2-thioxothiazolidin-5-ylidene)methyl)-1H-indole-2-carboxylate] | 30 ± 10 (≈ 71.2 µM) | 15 ± 9 (≈ 35.6 µM) | 30 ± 10 (≈ 71.2 µM) | 22 ± 5 (≈ 52.2 µM) | 60 ± 6 (≈ 142 µM) | 30 ± 10 (≈ 71.2 µM) | 60 ± 6 (≈ 142 µM) | 45 ± 3 (≈ 107 µM) | 60 ± 6 (≈ 142 µM) | 45 ± 3 (≈ 107 µM) | 60 ± 6 (≈ 142 µM) | 45 ± 3 (≈ 107 µM) | 60 ± 6 (≈ 142 µM) | 45 ± 3 (≈ 107 µM) | 60 ± 6 (≈ 142 µM) | 30 ± 10 (≈ 71.2 µM) | 30 ± 10 (≈ 71.2 µM) | 15 ± 3 (≈ 35.6 µM) | 273 to 274 | 30 ± 10 (≈ 71.2 µM) | MIC (P. ochrochloron; [15]): 15 ± 3 µg/mL (≈ 35.6 µM); MFC [8]: 30 ± 10 µg/mL (≈ 71.2 µM); MIC [8]: 15 ± 3 µg/mL (≈ 35.6 µM); MIC [9]: 8 ± 0.6 µg/mL (≈ 19 µM); MFC ([9]; Trichoderma viride, IAM5061): 15 ± 3 µg/mL (≈ 35.6 µM); MIC [9, 16]: 8 µg/mL (≈ 19 µM); MFC [10]: 30 ± 10 µg/mL (≈ 71.2 µM); MIC [10]: 15 ± 3 µg/mL (≈ 35.6 µM); MFC [11]: 30 ± 10 µg/mL (≈ 71.2 µM); MIC [11]: 15 ± 3 µg/mL (≈ 35.6 µM); MFC (A. ochraceus): 30 ± 10 µg/mL (≈ 71.2 µM); MIC (A. ochraceus): 15 ± 3 µg/mL (≈ 35.6 µM); MFC [12]: 30 ± 10 µg/mL (≈ 71.2 µM); MIC [12]: 15 ± 3 µg/mL (≈ 35.6 µM)
3 | COC(=O)c1[nH]c2ccccc2c1/C=C1\SC(=S)N(N2CCOCC2)C1=O [Compound 6, (Z)-methyl 3-((3-morpholino-4-oxo-2-thioxothiazolidin-5-ylidene)methyl)-1H-indole-2-carboxylate] | 60 ± 6 (≈ 149 µM) | 30 ± 10 (≈ 74.4 µM) | 30 ± 10 (≈ 74.4 µM) | 15 (≈ 37.2 µM) | 120 ± 10 (≈ 297 µM) | 60 ± 6 (≈ 149 µM) | 30 ± 10 (≈ 74.4 µM) | 15 ± 9 (≈ 37.2 µM) | 60 ± 6 (≈ 149 µM) | 30 ± 10 (≈ 74.4 µM) | 60 ± 6 (≈ 149 µM) | 30 ± 10 (≈ 74.4 µM) | 60 ± 6 (≈ 149 µM) | 45 ± 3 (≈ 112 µM) | 60 ± 6 (≈ 149 µM) | 30 ± 10 (≈ 74.4 µM) | 30 ± 10 (≈ 74.4 µM) | 15 ± 3 (≈ 37.2 µM) | 278 to 280 | 15 ± 3 (≈ 37.2 µM) | MIC [2]: 15 ± 9 µg/mL (≈ 37.2 µM); MIC (P. ochrochloron): 8 ± 0.6 µg/mL (≈ 19.8 µM); MIC (P. ochrochloron; [15]): 8 µg/mL (≈ 19.8 µM); MIC [9]: 8 ± 0.6 µg/mL (≈ 19.8 µM); MFC ([9]; Trichoderma viride, IAM5061): 15 ± 3 µg/mL (≈ 37.2 µM); MIC [9, 16]: 8 µg/mL (≈ 19.8 µM); MFC [10]: 30 ± 10 µg/mL (≈ 74.4 µM); MIC [10]: 15 ± 3 µg/mL (≈ 37.2 µM); MFC [11]: 120 ± 40 µg/mL (≈ 297 µM); MIC [11]: 60 ± 6 µg/mL (≈ 149 µM); MFC (A. ochraceus): 15 ± 3 µg/mL (≈ 37.2 µM); MIC (A. ochraceus): 8 ± 0.6 µg/mL (≈ 19.8 µM); MFC [12]: 15 ± 3 µg/mL (≈ 37.2 µM); MIC [12]: 8 ± 0.6 µg/mL (≈ 19.8 µM)
